# From ChEMBL document CHEMBL1687752, “Impact of antifungal prophylaxis on colonization and azole susceptibility of Candida species” (2009)
# What was measured:
# Type in all cases: functional
# Nakaseomyces glabratus [1] = experiment: Antifungal activity against Candida glabrata isolated from neutropenic subjects with AML or MDS receiving fluconazole by broth microdilution method
# Nakaseomyces glabratus [2] = experiment: Antifungal activity against 14 days cultured Candida glabrata isolated from HSCT recipient with acute or chronic GVHD mouth after 17 days of prophylaxis by broth microdilution method
# Nakaseomyces glabratus [3] = experiment: Antifungal activity against -2 days cultured Candida glabrata isolated from HSCT recipient with acute or chronic GVHD mouth receiving antifungal therapy for 172 days after 114 days of prophylaxis by broth microdilution method
# Candida albicans [4] = experiment: Antifungal activity against Candida albicans isolated from neutropenic subjects with AML or MDS prior to initiation of fluconazole therapy assessed as maximum MIC by broth microdilution method
# Nakaseomyces glabratus [5] = experiment: Antifungal activity against 176 days cultured Candida glabrata isolated from HSCT recipient with acute or chronic GVHD mouth receiving antifungal therapy for 172 days after 114 days of prophylaxis by broth microdilution method
# Candida albicans [6] = experiment: Antifungal activity against Candida albicans isolated from neutropenic subjects with AML or MDS receiving fluconazole by broth microdilution method
# Nakaseomyces glabratus [7] = experiment: Antifungal activity against Candida glabrata isolated from neutropenic subject 1187 with AML or MDS stool receiving antifungal drug after 22 days prophylaxis by broth microdilution method; details: 528 h
# Candida albicans [8] = experiment: Antifungal activity against Candida albicans isolated from HSCT recipient 462 with acute or chronic GVHD mouth receiving antifungal drug after 112 days prophylaxis by broth microdilution method
# Saccharomyces cerevisiae = experiment: Antifungal activity against Saccharomyces cerevisiae isolated from HSCT recipient 513 with acute or chronic GVHD mouth after 112 days prophylaxis by broth microdilution method
# Nakaseomyces glabratus [9] = experiment: Antifungal activity against 43 days cultured Candida glabrata isolated from HSCT recipient with acute or chronic GVHD mouth receiving antifungal therapy for 172 days after 114 days of prophylaxis by broth microdilution method
# Nakaseomyces glabratus [10] = experiment: Antifungal activity against 59 days cultured Candida glabrata isolated from HSCT recipient with acute or chronic GVHD mouth receiving antifungal therapy for 75 days after 33 days of prophylaxis by broth microdilution method
# Candida albicans [11] = experiment: Antifungal activity against Candida albicans isolated from HSCT recipients with acute or chronic GVHD receiving posaconazole assessed as maximum MIC by broth microdilution method
# Nakaseomyces glabratus [12] = experiment: Antifungal activity against 60 days cultured Candida glabrata isolated from HSCT recipient with acute or chronic GVHD mouth receiving antifungal therapy for 75 days after 33 days of prophylaxis by broth microdilution method
# Nakaseomyces glabratus [13] = experiment: Antifungal activity against 15 days cultured Candida glabrata isolated from HSCT recipient with acute or chronic GVHD mouth receiving antifungal therapy for 168 days after 113 days of prophylaxis by broth microdilution method
# Pichia kudriavzevii [14] = experiment: Antifungal activity against 14 days cultured Candida krusei isolated from neutropenic subject with AML or MDS pharynx after 12 days of prophylaxis by broth microdilution method
# Candida albicans [15] = experiment: Antifungal activity against Candida albicans isolated from HSCT recipient 262 with acute or chronic GVHD mouth after 115 days prophylaxis by broth microdilution method
# Nakaseomyces glabratus [16] = experiment: Antifungal activity against 1 day cultured Candida glabrata isolated from HSCT recipient with acute or chronic GVHD mouth receiving antifungal therapy for 143 days after 116 days of prophylaxis by broth microdilution method
# Nakaseomyces glabratus [17] = experiment: Antifungal activity against 3 days cultured Candida glabrata isolated from neutropenic subject with AML or MDS stool receiving antifungal therapy for 25 days after 3 days of prophylaxis by broth microdilution method
# Pichia kudriavzevii [18] = experiment: Antifungal activity against 16 days cultured Candida krusei isolated from neutropenic subject with AML or MDS stool receiving antifungal therapy for 19 days after 6 days of prophylaxis by broth microdilution method
# Nakaseomyces glabratus [19] = experiment: Antifungal activity against Candida glabrata isolated from HSCT recipient 497 with acute or chronic GVHD mouth receiving antifungal drug after 114 days prophylaxis by broth microdilution method
# Nakaseomyces glabratus [20] = experiment: Antifungal activity against Candida glabrata isolated from HSCT recipients with acute or chronic GVHD receiving fluconazole by broth microdilution method
# Nakaseomyces glabratus [21] = experiment: Antifungal activity against 176 days cultured Candida glabrata isolated from HSCT recipient with acute or chronic GVHD mouth receiving antifungal therapy for 168 days after 113 days of prophylaxis by broth microdilution method
# Candida albicans [22] = experiment: Antifungal activity against Candida albicans isolated from HSCT recipient 042 with acute or chronic GVHD mouth receiving antifungal drug after 112 days prophylaxis by broth microdilution method
# Candida tropicalis [23] = experiment: Antifungal activity against 9 days cultured Candida tropicalis isolated from neutropenic subject with AML or MDS stool receiving antifungal therapy for 45 days after 24 days of prophylaxis by broth microdilution method
# Pichia kudriavzevii [24] = experiment: Antifungal activity against Candida krusei isolated from neutropenic subjects with AML or MDS prior to initiation of fluconazole therapy assessed as maximum MIC by broth microdilution method
# Nakaseomyces glabratus [25] = experiment: Antifungal activity against Candida glabrata isolated from neutropenic subjects with AML or MDS prior to initiation of fluconazole therapy by broth microdilution method
# Nakaseomyces glabratus [26] = experiment: Antifungal activity against 12 days cultured Candida glabrata isolated from HSCT recipient with acute or chronic GVHD mouth receiving antifungal therapy for 143 days after 116 days of prophylaxis by broth microdilution method
# Nakaseomyces glabratus [27] = experiment: Antifungal activity against Candida glabrata isolated from HSCT recipients with acute or chronic GVHD prior to initiation of fluconazole therapy assessed as maximum MIC by broth microdilution method
# Candida albicans [28] = experiment: Antifungal activity against Candida albicans isolated from neutropenic subjects with AML or MDS prior to initiation of posaconazole therapy by broth microdilution method
# Nakaseomyces glabratus [29] = experiment: Antifungal activity against Candida glabrata isolated from neutropenic subject 1497 with AML or MDS pharynx receiving antifungal drug after 61 days prophylaxis by broth microdilution method
# Nakaseomyces glabratus [30] = experiment: Antifungal activity against 25 days cultured Candida glabrata isolated from invasive fungal infected subject blood receiving antifungal therapy for 25 days after 3 days of prophylaxis by broth microdilution method
# Nakaseomyces glabratus [31] = experiment: Antifungal activity against 19 days cultured Candida glabrata isolated from HSCT recipient with acute or chronic GVHD mouth after 17 days of prophylaxis by broth microdilution method
# Candida albicans [32] = experiment: Antifungal activity against Candida albicans isolated from HSCT recipients with acute or chronic GVHD prior to initiation of fluconazole therapy assessed as maximum MIC by broth microdilution method
# Pichia kudriavzevii [33] = experiment: Antifungal activity against Candida krusei isolated from neutropenic subjects with AML or MDS prior to initiation of posaconazole therapy assessed as maximum MIC by broth microdilution method
# Nakaseomyces glabratus [34] = experiment: Antifungal activity against Candida glabrata isolated from HSCT recipient 002 with acute or chronic GVHD mouth after 116 days prophylaxis by broth microdilution method
# Nakaseomyces glabratus [35] = experiment: Antifungal activity against Candida glabrata isolated from HSCT recipients with acute or chronic GVHD receiving posaconazole assessed as maximum MIC by broth microdilution method
# Pichia kudriavzevii [36] = experiment: Antifungal activity against Candida krusei isolated from HSCT recipients with acute or chronic GVHD prior to initiation of fluconazole therapy assessed as maximum MIC by broth microdilution method
# Candida tropicalis [37] = experiment: Antifungal activity against 2 days cultured Candida tropicalis isolated from neutropenic subject with AML or MDS pharynx receiving antifungal therapy for 45 days after 24 days of prophylaxis by broth microdilution method
smiles,measurement,setting,value
OC(Cn1cncn1)(Cn1cncn1)c1ccc(F)cc1F [FLUCONAZOLE],MIC50,Nakaseomyces glabratus [1],4 µg/mL
same,MIC90,Nakaseomyces glabratus [1],16 µg/mL
same,MIC,Nakaseomyces glabratus [2],> 64 µg/mL
same,MIC,Nakaseomyces glabratus [3],16 µg/mL
same,MIC,Candida albicans [4],1 µg/mL
same,MIC,Nakaseomyces glabratus [5],32 µg/mL
same,MIC50,Candida albicans [6],0.25 µg/mL
same,MIC90,Candida albicans [6],0.5 µg/mL
same,MIC,Nakaseomyces glabratus [7],32 µg/mL
same,MIC,Candida albicans [8],8 µg/mL
same,MIC,Saccharomyces cerevisiae,8 µg/mL
same,MIC,Nakaseomyces glabratus [9],16 µg/mL
same,MIC,Nakaseomyces glabratus [10],16 µg/mL
same,MIC,Candida albicans [11],64 µg/mL
same,MIC,Nakaseomyces glabratus [12],> 64 µg/mL
same,MIC,Nakaseomyces glabratus [13],64 µg/mL
same,MIC,Pichia kudriavzevii [14],64 µg/mL
same,MIC,Candida albicans [15],0.25 µg/mL
same,MIC,Nakaseomyces glabratus [16],16 µg/mL
same,MIC,Nakaseomyces glabratus [17],8 µg/mL
same,MIC,Pichia kudriavzevii [18],64 µg/mL
same,MIC,Nakaseomyces glabratus [19],32 µg/mL
same,MIC50,Nakaseomyces glabratus [20],32 µg/mL
same,MIC90,Nakaseomyces glabratus [20],64 µg/mL
same,MIC,Nakaseomyces glabratus [21],> 64 µg/mL
same,MIC,Candida albicans [22],1 µg/mL
same,MIC,Candida tropicalis [23],0.5 µg/mL
same,MIC,Pichia kudriavzevii [24],32 µg/mL
same,MIC50,Nakaseomyces glabratus [25],8 µg/mL
same,MIC90,Nakaseomyces glabratus [25],16 µg/mL
same,MIC,Nakaseomyces glabratus [26],64 µg/mL
same,MIC,Nakaseomyces glabratus [27],64 µg/mL
same,MIC50,Candida albicans [28],0.25 µg/mL
same,MIC90,Candida albicans [28],0.25 µg/mL
same,MIC,Nakaseomyces glabratus [29],> 64 µg/mL
same,MIC,Nakaseomyces glabratus [30],8 µg/mL
same,MIC,Nakaseomyces glabratus [31],> 64 µg/mL
same,MIC,Candida albicans [32],16 µg/mL
same,MIC,Pichia kudriavzevii [33],32 µg/mL
same,MIC,Nakaseomyces glabratus [34],16 µg/mL
same,MIC,Nakaseomyces glabratus [35],64 µg/mL
same,MIC,Pichia kudriavzevii [36],64 µg/mL
same,MIC,Candida tropicalis [37],0.25 µg/mL
